# Tested on: cytochrome P450
# Test: Effect on cytochrome P450 enzyme activity
# Format: in vitro ADME
smiles,measurement,value
"Cc1cc(-c2noc(C(F)(F)F)n2)ccc1OCCCc1cc(C(=O)N(C)C)no1 [Compound 8, N,N-dimethyl-5-(3-{2-methyl-4-[5-(trifluoromethyl)-1,2,4-oxadiazol-3-yl]phenoxy}propyl)isoxazole-3-carboxamide]",effect on cytochrome P450 enzyme activity,without affecting cytochrome P450 enzyme activity
